Laboratory results: ChEMBL document CHEMBL3508693 (2016)

Experiments:
CYP2C9 = CYP2C9 (Homo sapiens, UniProt P11712); assay: Inhibitory activity of 20 uM SPP100 on 258 Pmoles of cDNA-derived CYP2C9 enzyme in microsome prepared from human lymphoblastoid cell line; type: ADME, microsomes; parameters: conc 20 uM, interact cpd conc 6 uM; conditions: probe diclofenac
[1] = Terminal elimination half-life of SPP100 following single oral dose of SPP100 75 mg capsule studied in healthy human; type: ADME, organism-based; conditions: plasma
[2] = Bioavailability of aliskiren in receiver rat following duodenal infusion of radioactivity through bile from donor rat treated with single intravenous administration of 10 mg.Kg-1 [14C] aliskiren hemifumarate; type: ADME, organism-based, HAN:WIST(SPF); conditions: in vivo
[3] = Excretion (0-168h) of aliskiren in urine following oral administration of [14C] aliskiren hemifumarate at 3 mg.Kg-1 level in marmoset; type: ADME, organism-based, Callithrix jacchus; conditions: in vivo
[4] = Oral clearance of SPP100 following single oral dose of SPP100 300 mg capsule studied in healthy human; type: ADME, organism-based; conditions: plasma
[5] = % SPP100 (0-72h) recovered in faeces following single oral dose of [14C] aliskiren hemifumarate at 3 mg.Kg-1 level in marmoset; type: ADME, organism-based, Callithrix jacchus, Feces; conditions: in vivo
[6] = Excretion (0-72h) of aliskiren in faeces following oral administration of [14C] aliskiren hemifumarate at 3 mg.Kg-1 level in marmoset; type: ADME, organism-based, Callithrix jacchus, Feces; conditions: in vivo
[7] = Excretion of radioactivity (0-24h) in faeces following single oral dose of 100 mg.Kg-1 [14C] aliskiren hemifumarate in rat; type: ADME, organism-based, Albino HAN:WIST, Feces; conditions: in vivo
[8] = Absorption (0-168h) of total radioactivity following single oral administration of [14C] aliskiren hemifumarate at 3 mg.Kg-1 level in marmoset; type: ADME, organism-based, Callithrix jacchus, Plasma; conditions: in vivo
[9] = Excretion (0-24h) of radioactivity in faeces following oral administration of [14C] aliskiren hemifumarate at 3 mg.Kg-1 level in marmoset; type: ADME, organism-based, Callithrix jacchus, Feces; conditions: in vivo
[10] = Excretion of radioactivity (72-96h) in urine following single oral dose of 100 mg.Kg-1 [14C] aliskiren hemifumarate in rat; type: ADME, organism-based, Albino HAN:WIST; conditions: in vivo
[11] = Excretion (24h) of radioactivity in urine following oral administration of [14C] aliskiren hemifumarate at 100 mg.Kg-1 level in rat; type: ADME, organism-based, Lister-Hooded; conditions: in vivo
[12] = Excretion (48h) of radioactivity in faeces following oral administration of [14C] aliskiren hemifumarate at 100 mg.Kg-1 level in rat; type: ADME, organism-based, Lister-Hooded, Feces; conditions: in vivo
[13] = Excretion of radioactivity (24-48h) in faeces following single oral dose of 100 mg.Kg-1 [14C] aliskiren hemifumarate in rat; type: ADME, organism-based, Albino HAN:WIST, Feces; conditions: in vivo
[14] = Effect of 4 week oral dietary dosing of aliskiren hemifumarate at 2000 mg.Kg-1 level on density of uterine gland in female mouse; type: toxicity, organism-based, CB6F1-TGrasH2, Endometrial gland; conditions: in vivo, 672 h
[15] = Cmax of aliskiren hemifumarate following 2 week oral dosing of aliskiren hemifumarate at 100 mg.Kg-1 level studied on day 14 in female Callithrix jacchus; type: ADME, organism-based; conditions: marmoset, plasma
[16] = AUC(0-24h) of aliskiren hemifumarate following 2 week oral dosing of aliskiren hemifumarate at 100 mg.Kg-1 level studied on day 14 in male Callithrix jacchus; type: ADME, organism-based; conditions: marmoset, plasma
[17] = Blood clearance (0-168h) of unlabeled aliskiren hemifumarate following single intravenous administration of aliskiren hemifumarate at 1 mg.Kg-1 level in marmoset; type: ADME, organism-based, Callithrix jacchus; conditions: in vivo
[18] = Cmax of aliskiren hemifumarate following 2 week oral dosing of aliskiren hemifumarate at 100 mg.Kg-1 level studied on day 1 in female Callithrix jacchus; type: ADME, organism-based; conditions: marmoset, plasma
[19] = t1/2 of aliskiren hemifumarate following 2 week oral dosing of aliskiren hemifumarate at 10 mg.Kg-1 level studied on […] in male Callithrix jacchus; type: ADME, organism-based; conditions: marmoset, plasma
[20] = Cmax of aliskiren hemifumarate following 8 day once-daily dosing of SPP100B oral solution at 160 mg level studied on day 8 in men; type: ADME, organism-based; conditions: male, human, plasma
[21] = Tmax of aliskiren hemifumarate following 4 week oral dietary dosing of aliskiren hemifumarate at 1500 mg.Kg-1 level in male mouse; type: ADME, organism-based; conditions: CB6F1-TGrasH2, mouse, in vivo
[22] = AUCspec of aliskiren hemifumarate following 2 week oral dosing of aliskiren hemifumarate at 10 mg.Kg-1 level studied on day 1 in male Callithrix jacchus; type: ADME, organism-based, Plasma; conditions: marmoset, in vivo, 336 h
[23] = Cmaxspec of aliskiren hemifumarate following 2 week oral dosing of aliskiren hemifumarate at 10 mg.Kg-1 level studied on […] in male Callithrix jacchus; type: ADME, organism-based, Plasma; conditions: marmoset, in vivo, 336 h
[24] = AUC(0-24h) of aliskiren hemifumarate following 2 week oral dosing of aliskiren hemifumarate at 10 mg.Kg-1 level studied on day 1 in male Callithrix jacchus; type: ADME, organism-based; conditions: marmoset, plasma
[25] = AUC(0-24h) of aliskiren hemifumarate following 2 week oral dosing of aliskiren hemifumarate at 100 mg.Kg-1 level studied on day 14 in female Callithrix jacchus; type: ADME, organism-based; conditions: marmoset, plasma
[26] = Effect of 2 week oral dosing of aliskiren hemifumarate at 100 mg.Kg-1 level on blood urea nitrogen level in male Callithrix jacchus; type: toxicity, organism-based, Plasma; conditions: marmoset, 336 h
[27] = Cmaxspec of aliskiren hemifumarate following 2 week oral dosing of aliskiren hemifumarate at 10 mg.Kg-1 level studied on day 1 in female Callithrix jacchus; type: ADME, organism-based, Plasma; conditions: marmoset, in vivo, 336 h
[28] = Tmax of aliskiren hemifumarate following 8 day once-daily dosing of SPP100B oral solution at 640 mg level studied on day 8 in men; type: ADME, organism-based; conditions: male, human, plasma
[29] = Absorption (0-96h) of unlabeled aliskiren hemifumarate following oral administration of aliskiren hemifumarate at 100 mg.Kg-1 level in rat; type: ADME, organism-based; conditions: Albino HAN:WIST, plasma, read-out: Absorption
[30] = Tmax of aliskiren hemifumarate following 4 week oral dietary dosing of aliskiren hemifumarate at 1500 mg.Kg-1 level in female mouse; type: ADME, organism-based; conditions: CB6F1-TGrasH2, mouse, in vivo
[31] = Tmax of aliskiren hemifumarate following 2 week oral dosing of aliskiren hemifumarate at 100 mg.Kg-1 level studied on day 14 in male Callithrix jacchus; type: ADME, organism-based; conditions: marmoset, plasma
[32] = Cmax of aliskiren hemifumarate following 2 week oral dosing of aliskiren hemifumarate at 50 mg.Kg-1 level studied on day 14 in male Callithrix jacchus; type: ADME, organism-based; conditions: marmoset, plasma
[33] = Cmax/dose of aliskiren hemifumarate following 4 week oral dietary dosing of aliskiren hemifumarate at 1000 mg.Kg-1 level in male mouse; type: ADME, organism-based, CB6F1-TGrasH2; conditions: in vivo, 672 h
[34] = AUC/dose (0-168h) of unlabeled aliskiren hemifumarate following single intravenous administration of aliskiren hemifumarate at 1 mg.Kg-1 level in marmoset; type: ADME, organism-based, Callithrix jacchus, Plasma; conditions: in vivo

Chain of CYP2C9 (P11712 whole entry): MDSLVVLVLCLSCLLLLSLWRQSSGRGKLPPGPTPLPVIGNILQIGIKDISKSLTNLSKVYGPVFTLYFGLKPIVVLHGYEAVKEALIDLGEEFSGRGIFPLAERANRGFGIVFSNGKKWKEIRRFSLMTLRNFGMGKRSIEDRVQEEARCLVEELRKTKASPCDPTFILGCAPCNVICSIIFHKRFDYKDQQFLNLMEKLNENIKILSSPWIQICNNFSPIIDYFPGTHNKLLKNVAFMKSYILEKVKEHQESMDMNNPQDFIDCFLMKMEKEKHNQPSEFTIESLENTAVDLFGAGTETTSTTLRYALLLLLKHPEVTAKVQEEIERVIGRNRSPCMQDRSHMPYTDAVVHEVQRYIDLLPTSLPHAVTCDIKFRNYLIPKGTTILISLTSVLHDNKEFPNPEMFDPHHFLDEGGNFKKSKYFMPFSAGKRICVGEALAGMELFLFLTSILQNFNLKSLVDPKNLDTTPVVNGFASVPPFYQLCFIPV

COCCCOc1cc(C[C@@H](C[C@H](N)[C@@H](O)C[C@H](C(=O)NCC(C)(C)C(N)=O)C(C)C)C(C)C)ccc1OC
inhibition at 20 µM (CYP2C9): 1.3% | half-life [1]: 54 h | F [2]: < 3% | Compound recovery [3]: 2.3% | CL/F [4]: 4230 mL/min | Compound recovery [5]: 78% | Compound recovery [6]: 78%

COCCCOc1cc(C[C@@H](C[C@H](N)[C@@H](O)C[C@H](C(=O)NCC([14CH3])([14CH3])C(N)=O)C(C)C)C(C)C)ccc1OC.O=C(O)/C=C/C(=O)O
Radiolabel recovery [7]: 2.96% | Absorption [8]: 25% | Radiolabel recovery [9]: 84% | Radiolabel recovery [10]: 0.01% | Radiolabel recovery [11]: 73% | Radiolabel recovery [12]: 95.25% | Radiolabel recovery [13]: 0.68%

COCCCOc1cc(C[C@@H](C[C@H](N)[C@@H](O)C[C@H](C(=O)NCC(C)(C)C(N)=O)C(C)C)C(C)C)ccc1OC.COCCCOc1cc(C[C@@H](C[C@H](N)[C@@H](O)C[C@H](C(=O)NCC(C)(C)C(N)=O)C(C)C)C(C)C)ccc1OC.O=C(O)/C=C/C(=O)O [ALISKIREN FUMARATE]
Change in density of uterine gland [14]: OUTCOME = Decreased. No animals died during the study. | Cmax [15]: 10600 ng/mL | AUC at 24 h [16]: 109 µg·h/mL | Blood clearance [17]: 0.055 L·h/kg | Cmax [18]: 7940 ng/mL | half-life [19]: 5.63 h | Cmax [20]: 39.1 ng/mL | Tmax [21]: 3 h | AUC normalised [22]: 2.2 ((ug.h.ml-1)/(mg/kg) | Cmax normalised [23]: 0.577 (ug/ml)/(mg/kg) | AUC(0-t) at 24 h [24]: 22 µg·h/mL | AUC at 24 h [25]: 142 µg·h/mL | BUN_CHANGE_BY [26]: 166% | Cmax normalised [27]: 0.396 (ug/ml)/(mg/kg) | Tmax [28]: 3.2 h | Fa [29]: ≥ 3.4% | Tmax [30]: 0.5 h | Tmax [31]: 2 h | Cmax [32]: 12300 ng/mL | Cmax normalised [33]: 0.879 (ng/mL)/(mg/kg/day) | AUC normalised [34]: 49 (umol.h/L)/(mg/kg)
